Consider one compound from patent US7659251B2, “Ligand for G-protein coupled receptor FPRL2” (priority 2004, dated 2010).

Each structure is given as a SMILES string.

One test concerns the target T1, FPRL1 (Homo sapiens, UniProt P25090).
T1 construct: expressed in transfected cells; host or cells: CHO-K1 (with or without Galpha16 and apoaequorin)
T1 sequence (P25090 1-351): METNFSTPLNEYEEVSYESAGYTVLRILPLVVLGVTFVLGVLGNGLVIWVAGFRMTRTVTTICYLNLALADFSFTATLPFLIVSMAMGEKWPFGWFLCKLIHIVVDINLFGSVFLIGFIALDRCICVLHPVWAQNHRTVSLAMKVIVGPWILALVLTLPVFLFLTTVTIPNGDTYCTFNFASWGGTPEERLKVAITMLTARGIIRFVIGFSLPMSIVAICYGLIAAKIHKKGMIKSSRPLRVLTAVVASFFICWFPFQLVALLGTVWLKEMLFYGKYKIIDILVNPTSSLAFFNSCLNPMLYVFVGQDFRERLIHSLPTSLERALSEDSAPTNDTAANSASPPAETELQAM
Kind of test: Competition binding on FPRL1-expressing CHO-K1 cells, tracer [125I]-WKYMVm. The settings on record: up to concentrations of 3 μM. As to the method: FPRL2, FPRL1 and FPR-expressing CHO-K1 cells were plated in 24 wells plates (200,000 cells per well for FPRL2, and 100,000 cells per well for the two other receptors). The next day, the cells were washed twice with a KRH buffer containing 280 mM saccharose and, for FPRL1 and FPR, 0.1 % NaN3. […] Cells were washed twice with ice cold buffer, total radioactivity was recovered with 1 M […] and counted in a gamma counter for […]

In test [1] the test system is wild-type CHO-K1 cells, ChemerinR and other GPCRs. The test can be described thus: Aequorin-based assay on wild-type CHO-K1 cells and CHO-K1 cells expressing ChemerinR and other GPCRs. Type of test: cell-based. The settings on record: data not shown. The source says:
The human coding sequences (accession numbers AC005946, M84562 and M60626, respectively) were amplified by PCR from human genomic DNA, cloned into the pcDNA3 (Invitrogen) and pEFIN3 (Euroscreen) vectors and sequenced. The pEFIN3 constructs were transfected, using Fugene 6, into CHO-K1 cells, expressing or not Gα16 and apoaequorin. G418-resistant clones were characterized for receptor expression by Northern blotting. A functional assay based on the luminescence of mitochondrial aequorin was performed as described (42). Results were expressed as relative light units (RLU) or as the percentage of the response to 20 μM ATP.

The target of the next test is T2, FPR (Homo sapiens, UniProt P21462, E346A/V101L).
T2 construct: expressed in transfected cells; host or cells: CHO-K1 (with or without Galpha16 and apoaequorin)
T2 sequence (P21462 1-350 V101L/E346A): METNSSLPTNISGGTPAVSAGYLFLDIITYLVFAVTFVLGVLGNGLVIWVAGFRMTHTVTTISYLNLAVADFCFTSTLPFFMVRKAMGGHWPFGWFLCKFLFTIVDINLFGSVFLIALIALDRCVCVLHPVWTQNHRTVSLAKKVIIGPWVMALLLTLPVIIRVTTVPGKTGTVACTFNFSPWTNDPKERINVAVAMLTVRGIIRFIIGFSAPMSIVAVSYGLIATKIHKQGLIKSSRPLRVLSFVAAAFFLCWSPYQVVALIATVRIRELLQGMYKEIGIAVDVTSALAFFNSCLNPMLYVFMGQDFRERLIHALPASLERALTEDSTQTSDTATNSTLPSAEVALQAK
Kind of test: Aequorin-based assay on CHO-K1 cells expressing FPR. It is filed as cell-based. From the text: The human coding sequences (accession numbers AC005946, M84562 and M60626, respectively) were amplified by PCR from human genomic DNA, cloned into the pcDNA3 (Invitrogen) and pEFIN3 (Euroscreen) vectors and sequenced. The pEFIN3 constructs were transfected, using Fugene 6, into CHO-K1 cells, expressing or not Gα16 and apoaequorin. G418-resistant clones were characterized for receptor expression by Northern blotting. […] Results were expressed as relative light units (RLU) or as the percentage of the response to 20 μM ATP.

Another test concerns the target T3, FPRL2 (Homo sapiens, UniProt P25089).
T3 sequence (P25089 1-353): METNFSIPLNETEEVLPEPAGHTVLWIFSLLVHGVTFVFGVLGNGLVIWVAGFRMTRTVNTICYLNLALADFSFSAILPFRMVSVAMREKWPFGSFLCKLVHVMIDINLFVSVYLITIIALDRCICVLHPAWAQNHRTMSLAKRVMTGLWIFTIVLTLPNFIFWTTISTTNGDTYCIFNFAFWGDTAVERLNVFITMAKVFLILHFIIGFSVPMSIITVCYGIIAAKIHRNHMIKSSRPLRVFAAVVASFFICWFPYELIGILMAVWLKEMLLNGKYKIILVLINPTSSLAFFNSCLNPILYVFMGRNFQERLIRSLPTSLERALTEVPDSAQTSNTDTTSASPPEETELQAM
The test can be described thus: Cell surface FPRL2 on DCs by FACS after culture with F2L. It is filed as cell-based. The arrangement: expressed in transfected cells; host or cells: CHO-K1. The settings on record: 1 μM F2L for 48 hours; not shown. On the procedure: Antibodies were generated by injecting BALB/c mice with 100 μg pcDNA3-FPRL2 as described (45). Sera were tested by FACS on the CH0-K1-FPRL2 cell line, and immune mice were used to generate monoclonal antibodies by standard hybridoma technology, using the NSO myeloma cell line. The Ig class of selected hybridomas was determined with a mouse mAb isotyping kit (IsoStrip, Boehringer Mannheim). The antibodies were tested using flow cytometry, performed using anti-FPRL2 antibodies or control IgG2a at 1 μg/ml (for CHO-K1 cells) or 5 μg/ml (for primary cells) in PBS containing 0.1% BSA, 0.1% sodium azide, and FITC-conjugated γ-chain-specific goat anti-mouse IgG (Sigma) as secondary antibody. Fluorescence of 10,000 cells was assayed using a FACScan flow cytofluorimeter (Beckton Dickinson). Intracytoplasmic staining was realised using Cytoperm/Cytowash (Becton Dickinson) according to manufacturer's instructions.
A general note: A flow cytometer gives signals particle by particle.

The test system of a further test is monocytes. The test can be described thus: Ca2+ mobilization assay on monocytes. Type of test: cell-based, human. As to conditions: 100 nM F2L; FIG. 13C. As to the method:
(§1) Monocyte-derived DCs were generated either from the adherent fraction of PBMCs cultured with GM-CSF (800 U/ml) and […] (500 U/ml), or from Percoll-purified monocytes cultured with GM-CSF (50 ng/ml) and IL-13 (20 ng/ml), for 5 to 7 days. For Ca^2+ mobilization assay, monocytes were obtained by negative selection with the Monocyte Isolation Kit II (Miltenyi Biotec). […] For Ca^2+ mobilization assays, monocyte-derived DCs or monocytes (5×10^5 cells/ml in HBSS without phenol red but containing 0.1% BSA and 1 mM Probenecid (Sigma)) were loaded with 4 μM Fluo 4 (Molecular Probes) for 1 h at 20° C. in the dark. The loaded cells were washed twice, resuspended at 1 to 2×10^6 cells/ml and 50 μl of cell suspension was distributed per well of a 96 well plate (Viewplate, Packard Bioscience). Reading was performed in a Fluostar fluorimeter (BMG) at 25° C.: 50 μl of ligand-containing medium was injected, and the fluorescence at 520 nm was recorded every second for 1 to 3 min. Each condition was performed in triplicate, the mean fluorescence for each time point was calculated, and the curves were normalized by subtracting the mean value of the five measurements preceding the injection.
For orientation: A change in cytosolic calcium serves as a functional read-out for many receptors and channels.

The next test concerns monocyte-derived DCs. Kind of test: Ca2+ mobilization assay on monocyte-derived DCs. The settings on record: dose-dependent; FIG. 13A. Type of test: cell-based, human. On the procedure:
as §1

For the compound `CC[C@H](C)[C@H](NC(=O)[C@H](CCSC)NC(=O)CNC(=O)[C@H](CC(C)C)NC(=O)[C@H](CCSC)NC(C)=O)C(=O)N[C@@H](CCCCN)C(=O)N[C@@H](CC(N)=O)C(=O)N[C@@H](CO)C(=O)N[C@@H](CC(C)C)C(=O)N[C@@H](Cc1ccccc1)C(=O)NCC(=O)N[C@@H](CO)C(=O)N[C@H](C(=O)N[C@@H](CCC(=O)O)C(=O)N[C@H](C(=O)N[C@@H](Cc1c[nH]c2ccccc12)C(=O)N1CCC[C@H]1C(=O)N[C@@H](Cc1c[nH]c2ccccc12)C(=O)N[C@@H](CCC(N)=O)C(=O)N[C@H](C(=O)N[C@@H](CC(C)C)C(=O)O)C(C)C)[C@@H](C)O)C(C)C` [F2L], the “competition for FPRL1 binding” value on FPRL1 is “no competition”. In test [1], the “activity on all other cell lines tested” value was “completely inactive”. Further, the “activation of FPR” value at FPR (FIG. 6) is recorded as “not able to activate”. Moreover, the EC50 on FPR (FPR, −Log of EC50 in Mol/L, mean ± s.e.m., read-out: pEC50 (sequorin assay) (converted)) was more than 1000 nM. In addition, the “activity in the aequorin assay on FPR” value on FPR (up to 5 μM) is “no activity was detected”. The “cell surface FPRL2 on DCs” value at FPRL2 is listed as “down regulation”. Also, the “calcium mobilization in purified monocytes” value in the test on monocytes is on record as “Calcium mobilization was also observed”. In addition, in the test with monocyte-derived DCs, the “intracellular Ca2+ flux in immature DCs” value is on record as “promoted intracellular Ca^2+ flux”.
